Here are results for 39 compounds from ChEMBL document CHEMBL5528056, “BAY-9835: Discovery of the First Orally Bioavailable ADAMTS7 Inhibitor” (J Med Chem, 2024).

Data set [1] addresses A disintegrin and metalloproteinase with thrombospondin motifs 7 (Homo sapiens, UniProt Q9UKP4). As to the kind of experiment: Inhibition of recombinant ADAMTS7 (unknown origin) using HiLyteFluor-488 DELSSMVLELRGLRT-K(QXL520)-E-NH2 as substrate incubated for 120 mins by FRET assay.
The nature of data set [2]: Selectivity ratio of IC50 for ADAMTS12 (unknown origin) to IC50 for ADAMTS7 (unknown origin).
Data set [3] is described as follows: Selectivity ratio of IC50 for ADAMTS4 (unknown origin) to IC50 for ADAMTS7 (unknown origin).
Data set [4] can be described thus: Selectivity ratio of IC50 for ADAMTS5 (unknown origin) to IC50 for ADAMTS7 (unknown origin).
Data set [5] can be described thus: Selectivity ratio of IC50 for ADAM17 (unknown origin) to IC50 for ADAMTS7 (unknown origin).
Data set [6] can be described thus: Selectivity ratio of IC50 for MMP12 (unknown origin) to IC50 for ADAMTS7 (unknown origin).
Data set [7] in a line: Selectivity ratio of IC50 for MMP15 (unknown origin) to IC50 for ADAMTS7 (unknown origin).
Data set [8] can be described thus: Clearance in iv-dosed Wistar rat measured after 24 hrs by HPLC-MS/MS analysis. It is filed as ADME. To be noted: in vivo.
Data set [9] in a line: Oral bioavailability iv-dosed Wistar rat measured after 24 hrs by HPLC-MS/MS analysis. The class given is ADME, organism-based. As to conditions: in vivo.
Data set [10] in a line: Unbound plasma protein binding in iv-dosed Wistar rat measured after 24 hrs by HPLC-MS/MS analysis. The class given is ADME, cell-free.
Data set [11] is described as follows: AUC (infinity) in iv-dosed Wistar rat by HPLC-MS/MS analysis. The class given is ADME. To be noted: in vivo.
Another data set deals with Cytochrome P450 3A4 (Homo sapiens, UniProt P08684). As to the kind of experiment: Induction of CYP3A4 in human hepatocytes assessed as threshold concentration incubated for 48 hrs by qPCR analysis. The class given is ADME, cell-based, Hepatocyte.
The nature of data set [12]: Selectivity ratio of IC50 for MMP2 (unknown origin) to IC50 for ADAMTS7 (unknown origin).

Where “and” joins values, the source holds several entries; their conditions need not be identical. Identical values can stand only once.

A disintegrin and metalloproteinase with thrombospondin motifs 7, sequence (Q9UKP4 whole entry): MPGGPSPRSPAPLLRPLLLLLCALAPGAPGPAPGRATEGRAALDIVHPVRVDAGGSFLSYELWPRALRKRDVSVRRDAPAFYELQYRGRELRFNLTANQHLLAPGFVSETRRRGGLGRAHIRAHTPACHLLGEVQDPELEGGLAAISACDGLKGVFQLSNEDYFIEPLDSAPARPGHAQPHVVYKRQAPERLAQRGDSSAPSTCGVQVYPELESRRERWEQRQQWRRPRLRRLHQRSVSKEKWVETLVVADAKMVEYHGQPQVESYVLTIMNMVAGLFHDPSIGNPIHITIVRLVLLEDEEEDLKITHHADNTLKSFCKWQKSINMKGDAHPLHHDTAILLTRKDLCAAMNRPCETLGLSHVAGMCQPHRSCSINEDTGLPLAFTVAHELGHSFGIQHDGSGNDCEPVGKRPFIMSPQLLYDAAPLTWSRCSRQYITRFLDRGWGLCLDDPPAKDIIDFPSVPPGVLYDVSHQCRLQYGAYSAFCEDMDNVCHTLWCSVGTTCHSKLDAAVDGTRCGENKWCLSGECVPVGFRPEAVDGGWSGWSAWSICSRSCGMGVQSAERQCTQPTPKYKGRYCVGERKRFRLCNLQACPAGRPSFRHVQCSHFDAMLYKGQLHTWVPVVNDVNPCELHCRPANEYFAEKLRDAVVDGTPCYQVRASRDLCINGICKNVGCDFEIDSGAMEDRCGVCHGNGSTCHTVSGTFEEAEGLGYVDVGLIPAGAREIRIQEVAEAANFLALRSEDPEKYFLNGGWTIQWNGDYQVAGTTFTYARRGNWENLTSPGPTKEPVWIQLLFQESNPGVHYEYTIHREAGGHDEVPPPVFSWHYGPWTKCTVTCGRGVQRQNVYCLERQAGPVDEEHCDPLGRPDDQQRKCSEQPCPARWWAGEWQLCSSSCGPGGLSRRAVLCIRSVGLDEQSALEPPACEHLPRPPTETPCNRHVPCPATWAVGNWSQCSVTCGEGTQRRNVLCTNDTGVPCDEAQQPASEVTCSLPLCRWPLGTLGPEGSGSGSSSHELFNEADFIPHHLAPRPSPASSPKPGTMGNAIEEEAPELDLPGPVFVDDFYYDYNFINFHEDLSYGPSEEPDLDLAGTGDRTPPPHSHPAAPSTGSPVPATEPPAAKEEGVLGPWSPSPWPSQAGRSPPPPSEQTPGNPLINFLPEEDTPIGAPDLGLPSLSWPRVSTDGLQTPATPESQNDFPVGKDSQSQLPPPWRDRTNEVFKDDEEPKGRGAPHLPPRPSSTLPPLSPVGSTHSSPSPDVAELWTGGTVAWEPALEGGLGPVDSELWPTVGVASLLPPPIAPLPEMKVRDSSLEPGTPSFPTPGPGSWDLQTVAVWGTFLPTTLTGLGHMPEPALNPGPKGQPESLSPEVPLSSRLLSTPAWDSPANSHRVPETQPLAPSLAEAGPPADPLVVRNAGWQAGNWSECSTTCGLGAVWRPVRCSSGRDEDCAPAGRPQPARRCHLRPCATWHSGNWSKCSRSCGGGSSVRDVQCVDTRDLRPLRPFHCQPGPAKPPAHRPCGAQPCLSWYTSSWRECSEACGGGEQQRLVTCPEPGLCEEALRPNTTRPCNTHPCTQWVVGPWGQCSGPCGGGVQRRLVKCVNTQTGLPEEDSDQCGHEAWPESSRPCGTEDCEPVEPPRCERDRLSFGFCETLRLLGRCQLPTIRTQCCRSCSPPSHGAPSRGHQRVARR
Cytochrome P450 3A4, sequence (P08684 whole entry): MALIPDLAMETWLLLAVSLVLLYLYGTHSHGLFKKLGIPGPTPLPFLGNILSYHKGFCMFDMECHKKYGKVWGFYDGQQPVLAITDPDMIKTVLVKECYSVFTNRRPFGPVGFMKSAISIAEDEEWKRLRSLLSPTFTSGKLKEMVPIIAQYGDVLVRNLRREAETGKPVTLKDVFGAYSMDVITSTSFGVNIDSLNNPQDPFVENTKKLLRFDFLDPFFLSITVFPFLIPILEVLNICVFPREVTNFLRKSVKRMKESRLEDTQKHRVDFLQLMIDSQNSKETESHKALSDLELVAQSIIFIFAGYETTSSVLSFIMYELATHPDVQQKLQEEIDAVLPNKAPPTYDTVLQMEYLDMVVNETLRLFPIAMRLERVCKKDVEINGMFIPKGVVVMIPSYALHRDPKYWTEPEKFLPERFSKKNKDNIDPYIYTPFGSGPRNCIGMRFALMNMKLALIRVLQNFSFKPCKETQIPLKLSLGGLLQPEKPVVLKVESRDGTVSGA

In the case of `Cc1cn(-c2ccccc2)nc1C1(CNC(=O)c2ccc(F)c(F)c2-c2ccc(C(F)(F)F)cc2)NC(=O)NC1=O` (centres undefined), the IC50 in [1] is 8 nM. Besides, in data set [2], the Ratio IC50 was 14.

With `Cn1nc(-c2ccccc2)cc1C1(CNC(=O)c2ccc(F)c(F)c2-c2ccc(C(F)(F)F)cc2)NC(=O)NC1=O` (centres undefined), the Ratio IC50 in data set [3] is more than 20800; in [4], 12700; in data set [2], 26; in [5], 863; in data set [6], 1450; in data set [7] it was 41700.

With `Cn1nccc1[C@]1(CNC(=O)c2ccc(C(F)(F)F)c(F)c2-c2ccc(C(F)(F)F)cc2)NC(=O)NC1=O`, in data set [1], the IC50 was 10 nM.

For the compound `O=C1NC(=O)[C@](CNC(=O)c2cnn(-c3cccc(F)c3)n2)(C2CC2)N1`, the Ratio IC50 in data set [6] was determined as 1.1.

Turning to `O=C1NC(=O)[C@](CNC(=O)c2cnn(Cc3ccc(Cl)cc3)c2)(C2CC2)N1`, in data set [1], the IC50 is 280 nM. In addition, the Ratio IC50 in data set [6] was 7.4.

Consider `O=C1NC(=O)C(CNC(=O)c2ccccc2-c2ccc(C(F)(F)F)cc2)(c2ncsc2C(F)(F)F)N1` (centres undefined), for which the Ratio IC50 in data set [6] amounted to 31.

Regarding `O=C1NC(=O)[C@](CNC(=O)c2cnn(-c3ccccc3)c2)(C2CC2)N1`, in [6], the Ratio IC50 is 0.03.

`Cc1ccc(-c2cccc(C(=O)NC[C@@]3(C4CC4)NC(=O)NC3=O)c2)cc1`: in data set [1], the IC50 turned out to be 2300 nM.

As to `O=C1NC(=O)[C@](CNC(=O)c2cnn(-c3ccccc3F)n2)(C2CC2)N1`, the Ratio IC50 in [6] came to 0.4.

With `Cc1ccc(-n2ncc(C(=O)NC[C@@]3(C4CC4)NC(=O)NC3=O)n2)cc1`, in data set [6], the Ratio IC50 was 0.1.

On to `COc1cccc(C(=O)NC[C@@]2(c3ccnn3C)NC(=O)NC2=O)c1-c1ccc(C(F)(F)F)cc1`, for which the IC50 in data set [1] was 29 nM.

Regarding `Cn1nccc1[C@]1(CNC(=O)c2cc(F)ccc2-c2ccc(C(F)(F)F)cc2)NC(=O)NC1=O`, in data set [1], the IC50 was determined as 19 nM. Moreover, the CL in data set [8] was found to be 0.6 L/kg/h.

As for `CCn1nccc1C1(CNC(=O)c2ccccc2-c2ccc(C(F)(F)F)cc2)NC(=O)NC1=O` (centres undefined), in data set [6], the Ratio IC50 worked out at 96. Also, the CL in data set [8] is 1 L/kg/h.

On to `Cc1sc(-c2cccnc2)nc1C1(CNC(=O)c2ccc(F)c(F)c2-c2ccc(C(F)(F)F)cc2)NC(=O)NC1=O` (centres undefined), for which the IC50 in data set [1] is 9 nM. Besides, the Ratio IC50 in [2] was found to be 14.

Consider `Cc1sc(-c2ccccc2)nc1C1(CNC(=O)c2ccc(F)c(F)c2-c2ccc(C(F)(F)F)cc2)NC(=O)NC1=O` (centres undefined), for which the IC50 in data set [1] turned out to be 47 nM. Also, the Ratio IC50 in [2] turned out to be 10.

As to `Cn1cc(Cn2ncc(C(=O)NC[C@@]3(C4CC4)NC(=O)NC3=O)n2)cn1`, in data set [1], the half-inhibitory concentration (IC50) was 850 nM. Moreover, the Ratio IC50 in data set [6] stood at 29.4.

For the compound `O=C1NC(=O)C(CNC(=O)c2ccccc2-c2ccc(C(F)(F)F)cc2)(c2cscn2)N1` (centres undefined), the Ratio IC50 in data set [6] worked out at 67. In addition, the CL in data set [8] worked out at 1.4 L/kg/h.

Turning to `O=C1NC(=O)[C@](CNC(=O)c2cnn(-c3cnsc3)n2)(C2CC2)N1`, the Ratio IC50 in data set [6] was determined as 0.2.

`O=C1NC(=O)[C@](CNC(=O)c2cnn(-c3cccc(Cl)c3)n2)(C2CC2)N1`: the Ratio IC50 in [6] was found to be 0.1.

For the compound `Cc1scnc1C1(CNC(=O)c2ccccc2-c2ccc(C(F)(F)F)cc2)NC(=O)NC1=O` (centres undefined), in data set [1], the IC50 worked out at 6 nM. The Ratio IC50 in data set [6] was found to be 188. Besides, in data set [8], the CL amounted to 1.2 L/kg/h.

For `Cc1nc(C2(CNC(=O)c3ccccc3-c3ccc(C(F)(F)F)cc3)NC(=O)NC2=O)c(C)s1` (centres undefined), the IC50 in [1] is 15 nM. In addition, in [6], the Ratio IC50 turned out to be 36.

For `O=C1NC(=O)[C@](CNC(=O)c2cnn(-c3ccccc3)n2)(C2CC2)N1`, in data set [1], the IC50 came to 61 nM. Moreover, in data set [2], the Ratio IC50 amounted to 0.2. The CL in data set [8] came to 0.7 L/kg/h. Moreover, the F in [9] worked out at 74%. Moreover, the Fu in [10] is 15%.

As for `O=C1NC(=O)[C@](CNC(=O)c2ccccc2-c2ccc(C(F)(F)F)cc2)(C2CC2)N1`, in data set [6], the Ratio IC50 stood at 11. This compound also yielded a CL in data set [8] of 0.1 L/kg/h.

Turning to `O=C1NC(=O)[C@](CNC(=O)c2cnn(-c3ccc(Cl)cc3)n2)(C2CC2)N1`, the Ratio IC50 in [6] is 0.8.

With `Cn1ccnc1C1(CNC(=O)c2ccccc2-c2ccc(C(F)(F)F)cc2)NC(=O)NC1=O` (single isomer, unassigned), the IC50 in data set [1] was 3 nM. Also, in [6], the Ratio IC50 is 450. Further, the AUC in [11] was found to be 0.6 kg·h/L. For the same compound, the Activity on Cytochrome P450 3A4 came to 0.6 µM.

With `Cc1ccc(-c2ccccc2C(=O)NC[C@@]2(C3CC3)NC(=O)NC2=O)cc1`, the Ratio IC50 in data set [3] was 115; in [4], 213; in data set [5] it was 826; in data set [12], 759; in data set [6], 12 and 12.4; in data set [7], 872.

In the case of `O=C1NC(=O)[C@](CNC(=O)c2cnn(-c3ccc(F)cn3)n2)(C2CC2)N1`, the IC50 in data set [1] worked out at 115 nM. Moreover, the Ratio IC50 in data set [6] turned out to be 0.6.

`O=C1NC(=O)[C@](CNC(=O)c2cnn(Cc3nccs3)n2)(C2CC2)N1`: in data set [1], the IC50 is 910 nM. In addition, the Ratio IC50 in data set [6] worked out at 4.6.

As to `O=C1NC(=O)[C@](CNC(=O)c2cnn(-c3ccc(F)cc3)n2)(C2CC2)N1`, the Ratio IC50 in data set [3] was more than 20800; in data set [4], 12700; in data set [2] it was 26; in data set [5], 863; in [7], 41700.

As to `Cc1nc(Cn2ncc(C(=O)NC[C@@]3(C4CC4)NC(=O)NC3=O)n2)cs1`, the IC50 in data set [1] worked out at 930 nM. The Ratio IC50 in data set [6] is 33.5.

As to `Cc1c(C2(CNC(=O)c3ccccc3-c3ccc(C(F)(F)F)cc3)NC(=O)NC2=O)cnn1C` (centres undefined), the Ratio IC50 in data set [6] is 18.

Turning to `Cn1nccc1[C@]1(CNC(=O)c2c(F)cccc2-c2ccc(C(F)(F)F)cc2)NC(=O)NC1=O`, the IC50 in data set [1] was found to be 79 nM.

Consider `Cn1nccc1[C@]1(CNC(=O)c2ccccc2-c2ccc(C(F)(F)F)cc2)NC(=O)NC1=O`, for which the Ratio IC50 in [3] is 1440; in data set [4] it was 3220; in [2] it was 1; in data set [5], 303; in [12] it was 8320; in [7], 6390. Besides, the Activity on Cytochrome P450 3A4 stood at 16.6 µM.

For the compound `Cn1nccc1[C@]1(CNC(=O)c2cccc(Cl)c2-c2ccc(C(F)(F)F)cc2)NC(=O)NC1=O`, the IC50 in data set [1] is 16 nM.

Turning to `Cn1nccc1[C@]1(CNC(=O)c2cccc(F)c2-c2ccc(C(F)(F)F)cc2)NC(=O)NC1=O`, the IC50 in data set [1] worked out at 5 nM. Further, the CL in data set [8] turned out to be 0.7 L/kg/h.

As for `O=C1NC(=O)C(CNC(=O)c2ccccc2-c2ccc(C(F)(F)F)cc2)(c2ccnn2CC(F)(F)F)N1` (centres undefined), the Ratio IC50 in [6] worked out at 29.

On to `Cc1ccc(-c2ccc(C(=O)NC[C@@]3(C4CC4)NC(=O)NC3=O)cc2)cc1`, for which the IC50 in data set [1] was 580 nM. In addition, the Ratio IC50 in data set [6] was 4.7 10^-4No_unit.

Consider `Cn1nccc1[C@]1(CNC(=O)c2ccc(F)cc2-c2ccc(C(F)(F)F)cc2)NC(=O)NC1=O`, for which the IC50 in [1] amounted to 19 nM. For the same compound, the CL in data set [8] was found to be 0.9 L/kg/h.

In the case of `Cn1nccc1[C@]1(CNC(=O)c2ccc(Cl)c(F)c2-c2ccc(C(F)(F)F)cc2)NC(=O)NC1=O`, the IC50 in data set [1] came to 3 nM.
